Experimental data from article PMC12314576, “The Actin‐Binding Prolyl‐Isomerase Par17 Sustains Its Substrate Selectivity by Interdomain Allostery” (Proteins, 2025).

Tested on: Par17Δ61–156
Experiment: NMR titration of substrate peptides to 15N-labeled N-terminus of Par17
Format: binding, human
Settings: 15N-BEST-TROSY-HSQC, 50 mM KPi pH 6.7, 20°C; protein 0.3 mM, substrate 3 mM
Excerpt: To elucidate the physical nature of the chemical shift changes in Par17 upon the addition of selected substrate peptides, we investigated whether the isolated N‐terminus of Par17 (Par17Δ61–156) is also capable of binding various substrates on its own. […] This indicates the existence of an independent binding epitope located within the N‐terminus.
In the next step, we studied if this binding epitope is selectively interacting with peptides carrying Xaa‐Pro motifs. We already knew from former studies that model peptides carrying alanine instead of proline in the Xaa position are capable of binding to the hydrophobic catalytic center without being catalyzed.
For NMR measurements, purified and concentrated proteins in salt‐free buffers were mixed with 10% D2O and 1 μL DSS standard. Spectra were measured on an ultra shield 700‐NMR (Bruker, Billerica, US) with a triple resonance cryoprobe (700 MHz). For recording and processing of data, the software Topspin 3.5 was used. Analysis of spectra was carried out using Cara analysis software 2.3.1 (Rochus L.J. Keller) and/or CcpNmr Analysis 2.3.1 (Department of Molecular and Cell Biology, University of Leicester, UK). […]
They were added stepwise to 200 μL of the labeled parvulins (300 μM in 50 mM KPi buffer pH 6.7). Spectra were recorded with the pulse program Best‐TROSY at 20°C. Combined chemical shifts were calculated as described. […]

## Suc–Ala–Glu–Ala–Phe–pNA [proline-free model peptide carrying alanine instead of proline]
  binding to the N-terminal epitope of Par17: interact with the N‐terminal epitope
